From article PMC9841532, “Exploring the Effect of Halogenation in a Series of Potent and Selective A2B Adenosine Receptor Antagonists” (Journal of Medicinal Chemistry, 2022)
Like-named read-outs stand apart in the source and are kept apart here.

Tests used:
hA2BAR = target: T1, hA2BAR (Homo sapiens, UniProt P29275); assay: Radioligand binding competition, [3H]DPCPX, membranes from HEK-293-A2B cells; set-up: Exp. dG: unit not given here; conditions: for Ki: read-out: Ki hA2B; for Exp. dG: experimental binding free energy, Supplementary Table S3, unit not given (errors in kcal/mol); for % at 1 μM hA2B (percentage displacement of specific binding): [3H]DPCPX, human HEK-293 cells, n = 2
T1 construct: host or cells: HEK-293 (HEK-293-A2B) cell membranes
T1 sequence (P29275 1-332): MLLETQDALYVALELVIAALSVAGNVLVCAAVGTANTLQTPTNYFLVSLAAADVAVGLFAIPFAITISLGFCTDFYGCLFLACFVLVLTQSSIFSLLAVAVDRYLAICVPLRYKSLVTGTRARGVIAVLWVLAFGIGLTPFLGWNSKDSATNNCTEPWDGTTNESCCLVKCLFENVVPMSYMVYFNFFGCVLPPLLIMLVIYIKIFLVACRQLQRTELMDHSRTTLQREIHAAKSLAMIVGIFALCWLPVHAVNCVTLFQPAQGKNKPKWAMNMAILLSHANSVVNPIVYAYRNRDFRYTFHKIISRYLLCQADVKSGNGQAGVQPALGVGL
Experimental: (§1) All ligands reported in Tables 1–5 were obtained and tested as racemic mixtures. The whole set was evaluated in silico with a combination of a Rdkit[37] PAINS filter and Instant JChem from Chemaxon (https://www.chemaxon.com), to rule out the possibility that these ligands can be promiscuous pan-assay interference compounds (PAINS) and to assess their bioavailability, respectively. […] The stereoisomers of selected compounds were obtained by chiral resolution and tested at the four human AR subtypes in their enantiopure forms (Table 6).
(§2) A brief description is given below. […] Non-specific binding was determined in the presence of 10 μM R-PIA. The reaction mixture was incubated at 25 °C for 60 min. […] The reaction mixture was incubated at 25 °C for 30 min. […] The reaction mixture was incubated at 25 °C for 30 min. […] Non-specific binding was determined in the presence of 100 μM R-PIA. […] After the incubation time, membranes were washed and filtered and radioactivity was detected in a MicroBeta TriLux reader (PerkinElmer).

hA3AR = target: T2, hA3AR (Homo sapiens, UniProt P0DMS8); assay: Radioligand binding competition, [3H]NECA, membranes from HeLa-A3 cells; conditions: 1 μM, [3H]NECA, human HeLa cells, n = 2
T2 construct: expressed in transfected cells; host or cells: HeLa (HeLa-A3) cell membranes
T2 sequence (P0DMS8 1-318): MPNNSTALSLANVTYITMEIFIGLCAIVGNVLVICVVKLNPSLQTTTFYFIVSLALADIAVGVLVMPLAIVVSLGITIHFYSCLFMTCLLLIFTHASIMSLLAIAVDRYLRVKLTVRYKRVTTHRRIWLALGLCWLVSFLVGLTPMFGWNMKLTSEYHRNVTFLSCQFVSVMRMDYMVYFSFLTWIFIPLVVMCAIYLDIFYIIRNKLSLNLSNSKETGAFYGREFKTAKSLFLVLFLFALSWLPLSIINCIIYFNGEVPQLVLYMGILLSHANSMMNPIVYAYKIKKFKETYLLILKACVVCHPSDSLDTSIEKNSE
Experimental: as §1, §2

hA1AR = target: T3, hA1AR (Homo sapiens, UniProt P30542); assay: Radioligand binding competition, [3H]DPCPX, membranes from CHO-A1 cells; conditions: 1 μM, [3H]DPCPX, human CHO cells, n = 2
T3 sequence (P30542 1-326): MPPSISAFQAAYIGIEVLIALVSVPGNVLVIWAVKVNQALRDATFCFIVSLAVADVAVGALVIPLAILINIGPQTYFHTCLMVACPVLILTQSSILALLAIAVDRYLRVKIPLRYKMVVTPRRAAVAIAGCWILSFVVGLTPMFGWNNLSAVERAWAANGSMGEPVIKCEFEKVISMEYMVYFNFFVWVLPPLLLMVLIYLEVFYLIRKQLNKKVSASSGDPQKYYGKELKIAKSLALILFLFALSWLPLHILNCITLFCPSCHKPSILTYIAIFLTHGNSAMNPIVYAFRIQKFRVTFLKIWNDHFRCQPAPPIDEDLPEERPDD
Experimental: as §1, §2

hA2AAR = target: T4, hA2AAR (Homo sapiens, UniProt P29274); assay: Radioligand binding competition, [3H]ZM241385, membranes from HeLa-A2A cells; conditions: for % at 1 μM hA2A (percentage displacement of specific binding): [3H]ZM241385, human HeLa cells, n = 2
T4 construct: expressed in transfected cells; host or cells: HeLa (HeLa-A2A) cell membranes
T4 sequence (P29274 whole entry): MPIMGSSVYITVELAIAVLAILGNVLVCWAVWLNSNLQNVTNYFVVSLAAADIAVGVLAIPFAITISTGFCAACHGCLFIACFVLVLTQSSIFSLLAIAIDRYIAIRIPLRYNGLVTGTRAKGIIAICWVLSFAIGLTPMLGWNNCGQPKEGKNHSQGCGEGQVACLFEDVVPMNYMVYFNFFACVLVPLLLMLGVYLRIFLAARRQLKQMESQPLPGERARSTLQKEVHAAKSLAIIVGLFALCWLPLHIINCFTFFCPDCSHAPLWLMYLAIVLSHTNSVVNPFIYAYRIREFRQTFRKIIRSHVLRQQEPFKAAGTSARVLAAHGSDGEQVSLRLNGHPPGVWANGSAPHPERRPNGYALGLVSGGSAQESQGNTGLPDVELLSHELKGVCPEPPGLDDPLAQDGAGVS
Experimental: as §1, §2

[1] = displacement of specific [3H]DPCPX binding in human HEK-293 cells, n = 3

| Ki (hA2BAR; [1]) | Exp. dG (hA2BAR) | Ki (hA2BAR) | % at 1 μM hA3 (percentage displacement of specific binding) (hA3AR) | % at 1 μM hA1 (percentage displacement of specific binding) (hA1AR) | % at 1 μM hA2A (percentage displacement of specific binding) (hA2AAR) | % at 1 μM hA2B (percentage displacement of specific binding) (hA2BAR) | Ki (hA2AAR; displacement of specific [3H]ZM241385 binding in human HeLa cells, n = 3, read-out: Ki hA2A) | Ki hA2B (hA2BAR; [1]) | Compound |
| --- | --- | --- | --- | --- | --- | --- | --- | --- | --- |
| 8.6 ± 0.5 nM | -11 | < 10 nM | 4% | 14% | 31% | – | – | – | CC1=C(C(=O)OC(C)C)C(c2ccoc2)n2c(nc3cc(F)ccc32)N1 (centres unmarked) [16d] |
| – | – | – | 6% | 11% | 2% | 23% | – | – | CC1=C(C(=O)OC(C)C)C(c2cccs2)n2c(nc3ccc(F)cc32)N1 (centres unmarked) [15f] |
| 7.6 ± 0.6 nM | -11.07 | < 10 nM | 22% | 34% | 19% | – | – | – | CC1=C(C(=O)OC(C)C)C(c2cocn2)n2c(nc3ccc(F)cc32)N1 (centres unmarked) [17b] |
| 911 ± 14 nM | -8.235 | – | 8% | 2% | 7% | – | – | – | CCOC(=O)C1=C(C)Nc2nc3cc(Cl)ccc3n2C1c1ccsc1 (centres unmarked) [16o] |
| – | – | – | 8% | 1% | 6% | 11% | – | – | CC1=C(C(=O)OC(C)C)C(c2cccs2)n2c(nc3ccc(Br)cc32)N1 (centres unmarked) [15v] |
| 6.4 ± 0.7 nM | -11.17 | < 10 nM | 23% | 23% | 35% | – | – | – | CC1=C(C(=O)OC(C)C)C(c2cocn2)n2c(nc3cc(Cl)ccc32)N1 (centres unmarked) [18d] |
| – | – | – | 3% | 6% | 4% | 50% | – | – | CC1=C(C(=O)OC(C)C)C(c2ccoc2)n2c(nc3ccc(Cl)cc32)N1 (centres unmarked) [15l] |
| 837 ± 11 nM | -8.286 | – | 1% | 2% | 2% | – | – | – | CC1=C(C(=O)OC(C)C)C(c2cccs2)n2c(nc3cc(Cl)ccc32)N1 (centres unmarked) [16n] |
| 318 ± 6 nM | – | ~45 nM | 19% | 10% | 1% | – | – | – | CCOC(=O)C1=C(C)Nc2nc3ccc(Br)cc3n2C1c1ccoc1 (centres unmarked) [15s] |
| 44.7 ± 1.4 nM | -10.02 | – | 26% | 43% | 4% | – | – | – | CCOC(=O)C1=C(C)Nc2nc3ccc(F)cc3n2C1c1cocn1 (centres unmarked) [17a] |
| 47.3 ± 1.9 nM | -9.987 | ~45 nM | 3% | 22% | 30% | – | – | – | CCOC(=O)C1=C(C)Nc2nc3ccc(Cl)cc3n2C1c1ccoc1 (centres unmarked) [15k] |
| 8.6 ± 0.4 nM | -11 | < 10 nM | 15% | 30% | 13% | – | – | – | CCOC(=O)C1=C(C)Nc2nc3cc(Cl)ccc3n2C1c1cocn1 (centres unmarked) [18c] |
| – | – | – | 1% | 1% | 1% | 10% | – | – | CC1=C(C(=O)OC(C)C)C(c2ccsc2)n2c(nc3ccc(Br)cc32)N1 (centres unmarked) [15x] |
| 12.2 ± 1.2 nM | -10.79 | – | 5% | 32% | 3% | – | – | – | CC1=C(C(=O)OC(C)C)C(c2ccco2)n2c(nc3ccc(F)cc32)N1 (centres unmarked) [15b] |

The remaining lines, values behind:

| Compound | Ki (hA2BAR; [1]) | Exp. dG (hA2BAR) | Ki (hA2BAR) | % at 1 μM hA3 (percentage displacement of specific binding) (hA3AR) | % at 1 μM hA1 (percentage displacement of specific binding) (hA1AR) | % at 1 μM hA2A (percentage displacement of specific binding) (hA2AAR) | % at 1 μM hA2B (percentage displacement of specific binding) (hA2BAR) | Ki (hA2AAR; displacement of specific [3H]ZM241385 binding in human HeLa cells, n = 3, read-out: Ki hA2A) | Ki hA2B (hA2BAR; [1]) |
| --- | --- | --- | --- | --- | --- | --- | --- | --- | --- |
| CCOC(=O)C1=C(C)Nc2nc3cc(Cl)ccc3n2[C@@H]1c1cocn1 [(S)-18c] | 3.39 ± 0.2 nM | – | – | 6% | 22% | 17% | – | – | – |
| CC1=C(C(=O)OC(C)C)[C@H](c2ccco2)n2c(nc3cc(Cl)ccc32)N1 [(R)-16j] | – | – | – | 5% | 7% | 37% | 51% | – | – |
| CCOC(=O)C1=C(C)Nc2nc3cc(Cl)c(Cl)cc3n2C1c1ccoc1 (centres unmarked) [14k] | 54.7 ± 3.2 nM | – | – | 6% | 33% | 34% | – | – | – |
| CCOC(=O)C1=C(C)Nc2nc3cc(Cl)c(Cl)cc3n2C1c1ccsc1 (centres unmarked) [14o] | – | – | – | 1% | 5% | 1% | 9% | – | – |
| CC1=C(C(=O)OC(C)C)[C@@H](c2ccoc2)n2c(nc3cc(Cl)ccc32)N1 [(R)-16l] | 2.6 ± 0.3 nM | – | – | 24% | 37% | – | – | 96.3 ± 6 nM | – |
| CC1=C(C(=O)OC(C)C)C(c2cccs2)n2c(nc3cc(Br)c(Br)cc32)N1 (centres unmarked) [14v] | – | – | – | 3% | 1% | 1% | 9% | – | – |
| CCOC(=O)C1=C(C)Nc2nc3cc(Cl)c(Cl)cc3n2C1c1ccco1 (centres unmarked) [14i] | – | – | – | 1% | 2% | 5% | 9% | – | – |
| CC1=C(C(=O)OC(C)C)C(c2ccsc2)n2c(nc3cc(F)c(F)cc32)N1 (centres unmarked) [14h] | – | – | – | 4% | 1% | 3% | 43% | – | – |
| CC1=C(C(=O)OC(C)C)C(c2ccco2)n2c(nc3cc(Br)c(Br)cc32)N1 (centres unmarked) [14r] | 62.6 ± 1.9 nM | – | – | 21% | 11% | 28% | – | – | – |
| CCOC(=O)C1=C(C)Nc2nc3cc(Br)c(Br)cc3n2C1c1cccs1 (centres unmarked) [14u] | – | – | – | 5% | 2% | 7% | 12% | – | – |
| CC1=C(C(=O)OC(C)C)[C@@H](c2ccco2)n2c(nc3ccccc32)N1 [(S)-ISAM-140] | 0.89 ± 0.2 nM | – | – | 4% | 2% | 12% | – | – | sub-nanomolar |
